species: Cavia porcellus; assay: Inhibitory activity against potassium (15 mM) induced contractions of the guinea pig detrusor smooth muscle.; type: functional

IC50 [nM] | SMILES
1000 | C[C@](O)(C(=O)Nc1ccc(S(=O)(=O)c2ccccc2)cc1)C(F)(F)F
500 | C[C@](O)(C(=O)Nc1ccc([N+](=O)[O-])cc1)C(F)(F)F
280 | C[C@@]1(C(F)(F)F)CN(c2cccc[n+]2[O-])c2cc(S(=O)(=O)c3ccccc3)ccc2O1
680 | C[C@]1(C(F)(F)F)CN(c2cccc[n+]2[O-])c2cc(S(=O)(=O)c3ccccc3)ccc2O1
7 | O=[N+]([O-])c1ccc2c(c1)N(c1cccc[n+]1[O-])CC(C(F)F)(C(F)F)O2
540 | CC1(C(F)(F)F)CN(c2cccc[n+]2[O-])c2cc(S(=O)(=O)c3ccccc3)ccc2O1 (stereo not drawn)
4100 | CC1(C)CN(c2cccc[n+]2[O-])c2cc(S(=O)(=O)c3ccccc3)ccc2O1
600 | CC1(C)Oc2ccc(C#N)cc2[C@@H](N2CCCC2=O)[C@@H]1O [CROMAKALIM]
